This is an account of results in PMC3790881, “Identification of Leptospira interrogans Phospholipase C as a Novel Virulence Factor Responsible for Intracellular Free Calcium Ion Elevation during Macrophage Death” (PLoS ONE, 2013).

The target of the test is T1, rL-PI-PLC (recombinant LB361 gene product; L-PI-PLC) (Leptospira interrogans, UniProt Q8EX56).
T1 construct: gene LB_361; entire LB361 gene (amplicon 384 bp) in pET42a, expressed in E. coli BL21DE3, Ni-NTA purified
Put plainly: IP3 fluorescence polarization assay, Lineweaver-Burk plot. Type of test: biochemical. As to conditions: pH 7.0, 37 °C, 50 mM HEPES, 100 mM KCl, 1.9 mM CaCl2, 2 mM EGTA, 0.1% sodium deoxycholate; acyl chains of PIP2 not told.

T1 sequence (Q8EX56 entry or part of it): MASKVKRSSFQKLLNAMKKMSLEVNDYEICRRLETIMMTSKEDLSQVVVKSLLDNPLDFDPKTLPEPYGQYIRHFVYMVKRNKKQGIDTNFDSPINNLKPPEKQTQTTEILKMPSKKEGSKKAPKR

As for PIP2, the Km was 199 µM.
